For 32 molecules, IC50 results are on record in patent US9452986B2, “6-heteroaryloxy- or 6-aryloxy-quinoline-2-carboxamides and method of use” (AbbVie Inc., priority 2014, dated 2016).

Where only a bound is given, the exact number is not on record here.

Sequence of recombinant human Nav1.7 (Q15858 whole entry): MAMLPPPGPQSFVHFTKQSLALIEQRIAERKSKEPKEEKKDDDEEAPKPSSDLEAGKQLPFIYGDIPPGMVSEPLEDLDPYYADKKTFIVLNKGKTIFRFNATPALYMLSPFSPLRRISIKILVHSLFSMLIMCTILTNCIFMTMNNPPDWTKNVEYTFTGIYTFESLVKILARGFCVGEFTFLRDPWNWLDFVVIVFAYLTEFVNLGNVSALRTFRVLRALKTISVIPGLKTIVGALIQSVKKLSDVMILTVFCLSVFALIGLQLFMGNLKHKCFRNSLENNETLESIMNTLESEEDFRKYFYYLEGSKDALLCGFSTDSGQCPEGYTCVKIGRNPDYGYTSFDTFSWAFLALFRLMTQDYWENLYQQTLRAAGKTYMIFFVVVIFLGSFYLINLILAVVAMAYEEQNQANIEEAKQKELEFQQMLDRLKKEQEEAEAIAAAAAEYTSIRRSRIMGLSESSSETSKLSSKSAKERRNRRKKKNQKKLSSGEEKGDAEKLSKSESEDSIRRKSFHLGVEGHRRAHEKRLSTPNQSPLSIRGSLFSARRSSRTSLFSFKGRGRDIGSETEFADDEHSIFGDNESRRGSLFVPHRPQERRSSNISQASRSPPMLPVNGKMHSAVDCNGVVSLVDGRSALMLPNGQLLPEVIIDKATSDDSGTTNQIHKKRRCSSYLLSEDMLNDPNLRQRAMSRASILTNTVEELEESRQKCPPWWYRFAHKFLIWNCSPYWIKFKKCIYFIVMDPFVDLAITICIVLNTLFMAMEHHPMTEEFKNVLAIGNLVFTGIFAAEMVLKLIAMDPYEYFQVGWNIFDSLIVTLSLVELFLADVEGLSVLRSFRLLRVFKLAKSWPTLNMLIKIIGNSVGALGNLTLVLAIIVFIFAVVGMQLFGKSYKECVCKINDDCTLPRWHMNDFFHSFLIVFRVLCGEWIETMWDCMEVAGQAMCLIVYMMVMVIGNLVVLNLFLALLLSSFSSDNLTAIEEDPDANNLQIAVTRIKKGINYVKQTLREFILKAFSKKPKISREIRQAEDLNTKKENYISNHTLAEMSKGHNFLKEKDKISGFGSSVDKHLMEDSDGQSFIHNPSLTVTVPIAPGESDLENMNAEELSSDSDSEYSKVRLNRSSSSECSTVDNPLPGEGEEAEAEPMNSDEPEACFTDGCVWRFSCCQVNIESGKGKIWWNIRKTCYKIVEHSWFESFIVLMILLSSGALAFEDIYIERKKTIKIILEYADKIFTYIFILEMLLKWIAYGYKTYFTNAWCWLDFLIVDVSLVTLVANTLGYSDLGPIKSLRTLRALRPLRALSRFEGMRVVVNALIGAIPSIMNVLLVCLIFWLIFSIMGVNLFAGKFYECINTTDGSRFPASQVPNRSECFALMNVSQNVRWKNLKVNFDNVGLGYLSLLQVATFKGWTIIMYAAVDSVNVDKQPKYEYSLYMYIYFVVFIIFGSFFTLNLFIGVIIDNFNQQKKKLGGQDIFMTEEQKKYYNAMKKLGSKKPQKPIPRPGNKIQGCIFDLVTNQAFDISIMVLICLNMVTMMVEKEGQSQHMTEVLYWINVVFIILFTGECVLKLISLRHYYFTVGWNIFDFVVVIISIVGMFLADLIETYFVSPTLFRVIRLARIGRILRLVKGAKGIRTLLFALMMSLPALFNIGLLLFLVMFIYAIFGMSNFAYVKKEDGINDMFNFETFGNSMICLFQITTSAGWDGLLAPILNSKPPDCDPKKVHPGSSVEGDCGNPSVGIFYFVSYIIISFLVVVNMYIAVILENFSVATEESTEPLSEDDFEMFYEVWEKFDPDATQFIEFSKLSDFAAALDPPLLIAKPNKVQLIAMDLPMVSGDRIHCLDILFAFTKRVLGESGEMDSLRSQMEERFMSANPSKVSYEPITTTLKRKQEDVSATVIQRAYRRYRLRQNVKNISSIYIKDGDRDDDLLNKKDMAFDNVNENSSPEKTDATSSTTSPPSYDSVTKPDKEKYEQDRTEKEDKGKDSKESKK

The target of the first test is recombinant human Nav1.7 (Homo sapiens (Human), UniProt Q15858). In words: FRET-based membrane potential assay, recombinant human sodium channel Nav1.7. The class given is cell-based. The conditions noted are these: HEK293 cells stably expressing recombinant human Nav1.7; veratridine + scorpion venom depolarization; read-out: FRET-Membrane Potential Nav1.7 IC50. The essentials:
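Channel activation used veratridine at its EC80, set by a dilution curve each experiment, together with Leiurus scorpion venom, added 3 min after compound. Membrane-potential ratio signals from FLIPR Tetra in HEPES-buffered HBSS were fitted to a four-parameter Hill equation for percent inhibition and IC50.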
As to `O=C1NCC(=O)N2CCN(C(=O)c3ccc4cc(Oc5ccc(C(F)(F)F)cn5)ccc4n3)CC12` (centres unmarked) [Example 171, 8-[(6-{[5-(trifluoromethyl)pyridin-2-yl]oxy}quinolin-2-yl)carbonyl]tetrahydro-2H-pyrazino[1,2-a]pyrazine-1,4(3H,6H)-dione], the IC50 came to 7.95 µM.
With `O=C1CN(C(=O)c2ccc3cc(Oc4ccc(C(F)(F)F)cn4)ccc3n2)CCN1` [Example 172, 4-[(6-{[5-(trifluoromethyl)pyridin-2-yl]oxy}quinolin-2-yl)carbonyl]piperazin-2-one], the IC50 was 10.5 µM.
Still for that read-out and setting: with `O=C(c1ccc2cc(Oc3ccc(C(F)(F)F)cn3)ccc2n1)N1CCn2cncc2C1` [Example 173, 5,6-dihydroimidazo[1,5-a]pyrazin-7(8H)-yl(6-{[5-(trifluoromethyl)pyridin-2-yl]oxy}quinolin-2-yl)methanone] the figure was 0.833 µM; with `O=C(NCCN1CCCC1)c1ccc2cc(Oc3ccc(C(F)(F)F)cn3)ccc2n1` [Example 174, N-[2-(pyrrolidin-1-yl)ethyl]-6-{[5-(trifluoromethyl)pyridin-2-yl]oxy}quinoline-2-carboxamide], 0.294 µM.
As to `O=C(NCCN1CCCCC1)c1ccc2cc(Oc3ccc(C(F)(F)F)cn3)ccc2n1` [Example 175, N-[2-(piperidin-1-yl)ethyl]-6-{[5-(trifluoromethyl)pyridin-2-yl]oxy}quinoline-2-carboxamide], the IC50 was found to be 0.206 µM.
Still for that read-out and setting: with `CC(C)S(=O)(=O)N1CCN(C(=O)c2ccc3cc(Oc4ccc(C(F)(F)F)cn4)ccc3n2)CC1` [Example 177, [4-(isopropylsulfonyl)piperazin-1-yl](6-{[5-(trifluoromethyl)pyridin-2-yl]oxy}quinolin-2-yl)methanone] the figure was 2.68 µM; with `O=C(c1ccc2cc(Oc3ccc(C(F)(F)F)cn3)ccc2n1)N1C[C@@H](F)C[C@@H]1c1cc(F)ccc1F` [Example 179, [(2R,4S)-2-(2,5-difluorophenyl)-4-fluoropyrrolidin-1-yl](6-{[5-(trifluoromethyl)pyridin-2-yl]oxy}quinolin-2-yl)methanone], 0.684 µM.
On the same count and under the same terms, in the case of `O=C(c1ccc2cc(Oc3ccc(C(F)(F)F)cn3)ccc2n1)N1C[C@H](F)C[C@@H]1c1cc(F)ccc1F` [Example 180, [(2R,4R)-2-(2,5-difluorophenyl)-4-fluoropyrrolidin-1-yl](6-{[5-(trifluoromethyl)pyridin-2-yl]oxy}quinolin-2-yl)methanone] it was 0.675 µM; in that of `O=C(c1ccc2cc(Oc3ccc(C(F)(F)F)cn3)ccc2n1)N1CCN(CC(F)(F)F)CC1` [Example 181, [4-(2,2,2-trifluoroethyl)piperazin-1-yl](6-{[5-(trifluoromethyl)pyridin-2-yl]oxy}quinolin-2-yl)methanone], 3.47 µM.
Turning to `O=C(c1ccc2cc(Oc3ccc(C(F)(F)F)cn3)ccc2n1)N1CCN(c2ccccn2)CC1` [Example 182, [4-(pyridin-2-yl)piperazin-1-yl](6-{[5-(trifluoromethyl)pyridin-2-yl]oxy}quinolin-2-yl)methanone], the half-maximal inhibitory concentration (IC50) is 0.69 µM.
The same measure, in the same setting: with `O=C(c1ccc2cc(Oc3ccc(C(F)(F)F)cn3)ccc2n1)N1CCN(S(=O)(=O)c2cccnc2)CC1` [Example 183, [4-(pyridin-3-ylsulfonyl)piperazin-1-yl](6-{[5-(trifluoromethyl)pyridin-2-yl]oxy}quinolin-2-yl)methanone] the figure was above 20 µM.
On to `O=C(c1ccc2cc(Oc3ccc(C(F)(F)F)cn3)ccc2n1)N1CCN(S(=O)(=O)N2CCCCC2)CC1` [Example 184, [4-(piperidin-1-ylsulfonyl)piperazin-1-yl](6-{[5-(trifluoromethyl)pyridin-2-yl]oxy}quinolin-2-yl)methanone], for which the 50% inhibitory concentration (IC50) amounted to 0.923 µM.
Still for that read-out and setting: with `O=C(c1ccc2cc(Oc3ccc(C(F)(F)F)cn3)ccc2n1)N1CCN(S(=O)(=O)N2CCOCC2)CC1` [Example 185, [4-(morpholin-4-ylsulfonyl)piperazin-1-yl](6-{[5-(trifluoromethyl)pyridin-2-yl]oxy}quinolin-2-yl)methanone] the figure was above 20 µM; with `COC(=O)N1CCN(C(=O)c2ccc3cc(Oc4ccc(C(F)(F)F)cn4)ccc3n2)CC1` [Example 186, methyl 4-[(6-{[5-(trifluoromethyl)pyridin-2-yl]oxy}quinolin-2-yl)carbonyl]piperazine-1-carboxylate], 3.97 µM; with `CN(C)C(=O)N1CCN(C(=O)c2ccc3cc(Oc4ccc(C(F)(F)F)cn4)ccc3n2)CC1` [Example 187, N,N-dimethyl-4-[(6-{[5-(trifluoromethyl)pyridin-2-yl]oxy}quinolin-2-yl)carbonyl]piperazine-1-carboxamide], above 20 µM.
Still for that read-out and setting: with `CN1C(=O)CN(C(=O)c2ccc3cc(Oc4ccc(C(F)(F)F)cn4)ccc3n2)CC12COC2` [Example 188, 5-methyl-8-[(6-{[5-(trifluoromethyl)pyridin-2-yl]oxy}quinolin-2-yl)carbonyl]-2-oxa-5,8-diazaspiro[3.5]nonan-6-one] the figure was 9.53 µM.
Regarding `O=C(c1ccc2cc(Oc3ccc(C(F)(F)F)cn3)ccc2n1)N1CC2CNCCN2C1=O` (centres unmarked) [Example 189, 2-[(6-{[5-(trifluoromethyl)pyridin-2-yl]oxy}quinolin-2-yl)carbonyl]hexahydroimidazo[1,5-a]pyrazin-3(2H)-one], the half-maximal inhibitory concentration (IC50) was determined as 15.1 µM.
The same measure, in the same setting: with `O=C(c1ccc2cc(Oc3ccc(C(F)(F)F)cn3)ccc2n1)N1CCC(F)(F)C(O)C1` (centres unmarked) [Example 193, (4,4-difluoro-3-hydroxypiperidin-1-yl)(6-{[5-(trifluoromethyl)pyridin-2-yl]oxy}quinolin-2-yl)methanone] the figure was 4.25 µM.
On the same count and under the same terms, in the case of `C[C@H]1N(C(=O)c2ccc3cc(Oc4ccc(C(F)(F)F)cn4)ccc3n2)CC1(C)C` [Example 197, (6-{[5-(trifluoromethyl)pyridin-2-yl]oxy}quinolin-2-yl)[(2R)-2,3,3-trimethylazetidin-1-yl]methanone] it was 2.72 µM; in that of `CC1(O)CN(C(=O)c2ccc3cc(Oc4ccc(C(F)(F)F)cn4)ccc3n2)C1` [Example 198, (3-hydroxy-3-methylazetidin-1-yl)(6-{[5-(trifluoromethyl)pyridin-2-yl]oxy}quinolin-2-yl)methanone], 2.21 µM; in that of `CC1(Oc2ccccc2)CN(C(=O)c2ccc3cc(Oc4ccc(C(F)(F)F)cn4)ccc3n2)C1` [Example 200, (3-methyl-3-phenoxyazetidin-1-yl)(6-{[5-(trifluoromethyl)pyridin-2-yl]oxy}quinolin-2-yl)methanone], above 20 µM.
Regarding `O=C(c1ccc2cc(Oc3ccc(C(F)(F)F)cn3)ccc2n1)N1CC(n2ccnc2)C1` [Example 202, [3-(1H-imidazol-1-yl)azetidin-1-yl](6-{[5-(trifluoromethyl)pyridin-2-yl]oxy}quinolin-2-yl)methanone], the IC50 was 0.911 µM.
Same read-out and setting: in the case of `O=C(c1ccc2cc(Oc3ccc(C(F)(F)F)cn3)ccc2n1)N1CC(Oc2ccc(Cl)cc2)C1` [Example 203, [3-(4-chlorophenoxy)azetidin-1-yl](6-{[5-(trifluoromethyl)pyridin-2-yl]oxy}quinolin-2-yl)methanone] it was above 20 µM.
The same measure, in the same setting: in the case of `O=C(c1ccc2cc(Oc3ccc(C(F)(F)F)cn3)ccc2n1)N1CC(n2cncn2)C1` [Example 204, [3-(1H-1,2,4-triazol-1-yl)azetidin-1-yl](6-{[5-(trifluoromethyl)pyridin-2-yl]oxy}quinolin-2-yl)methanone] it was 1.63 µM.
Take `C[C@@H]1N(C(=O)c2ccc3cc(Oc4ccc(C(F)(F)F)cn4)ccc3n2)CC1(C)C` [Example 205, (6-{[5-(trifluoromethyl)pyridin-2-yl]oxy}quinolin-2-yl)[(2S)-2,3,3-trimethylazetidin-1-yl]methanone]: the IC50 stood at 3.17 µM.
With `O=C(c1ccc2cc(Oc3ccc(C(F)(F)F)cn3)ccc2n1)N1CC(Oc2ccc(Br)cc2)C1` [Example 206, [3-(4-bromophenoxy)azetidin-1-yl](6-{[5-(trifluoromethyl)pyridin-2-yl]oxy}quinolin-2-yl)methanone], the IC50 is above 20 µM.

The same test, now with this note: read-out: FRET-Membrane Potential Nav1.7 IC50.
`CS(=O)(=O)N1CCN(C(=O)c2ccc3cc(Oc4ccc(C(F)(F)F)cn4)ccc3n2)CC1` [Example 176, [4-(methylsulfonyl)piperazin-1-yl](6-{[5-(trifluoromethyl)pyridin-2-yl]oxy}quinolin-2-yl)methanone]: the IC50 was found to be 8.77 µM.
On the same count and under the same terms, in the case of `O=C(c1ccc2cc(Oc3ccc(C(F)(F)F)cn3)ccc2n1)N1CCN(S(=O)(=O)c2ccccc2)CC1` [Example 178, [4-(phenylsulfonyl)piperazin-1-yl](6-{[5-(trifluoromethyl)pyridin-2-yl]oxy}quinolin-2-yl)methanone] it was 0.523 µM.
The same measure, in the same setting: in the case of `O=C(c1ccc2cc(Oc3ccc(C(F)(F)F)cn3)ccc2n1)N1CCC(O)C(F)(F)C1` (centres unmarked) [Example 190, (3,3-difluoro-4-hydroxypiperidin-1-yl)(6-{[5-(trifluoromethyl)pyridin-2-yl]oxy}quinolin-2-yl)methanone] it was 12.1 µM; in that of `COCC1(C)CN(C(=O)c2ccc3cc(Oc4ccc(C(F)(F)F)cn4)ccc3n2)C1` [Example 199, [3-(methoxymethyl)-3-methylazetidin-1-yl](6-{[5-(trifluoromethyl)pyridin-2-yl]oxy}quinolin-2-yl)methanone], 2.55 µM.
Same read-out and setting: in the case of `O=C(c1ccc2cc(Oc3ccc(C(F)(F)F)cn3)ccc2n1)N1CC(Oc2ccccc2)C1` [Example 201, (3-phenoxyazetidin-1-yl)(6-{[5-(trifluoromethyl)pyridin-2-yl]oxy}quinolin-2-yl)methanone] it was above 20 µM.
As for `CC1(CO)CN(C(=O)c2ccc3cc(Oc4ccc(C(F)(F)F)cn4)ccc3n2)C1` [Example 207, [3-(hydroxymethyl)-3-methylazetidin-1-yl](6-{[5-(trifluoromethyl)pyridin-2-yl]oxy}quinolin-2-yl)methanone], the IC50 was determined as 3.65 µM.
